This note sets out measurements from patent publication US8981066B2, “Epigenetic mechanisms related to DNA damage and aging” (Buck Institute for Research on Aging, priority 2011, dated 2015).

The subject of one experiment is H1.0 gene. Put plainly: H1.0 gene expression in hADSCs (qPCR). The experiment is classed as cell-based, human. The note with it: bleomycin-treated hADSCs. As to the method: FIGS. 4A-4C illustrate the dynamics of the meK172meK180 methylation of hi stone H1.0 upon genotoxic stress-induced senescence of human adult stem (hADSC). FIG. 4A: Cells we treated with 50 μg/ml bleomycin for 3 hrs. Drug was replaced with normal DMEM12 media and cells were assessed for ^meK172^meK180 histone H1 methylation and DNA damage γH2AX at different time points (panels A, B, and C) by immunohistochemistry. Cellular senescence was estimated by senescence-associated β-Gal activity (phase-contrast). FIGS. 4B and 4C show the results of Western blots using H1.0 methyl antibodies in crude cellular extracts from human ADSCs treated with Rapamycin (FIG. 4B) or rampamyucin and bleomycin (FIG. 4C). […] However, acute DDR results in transcriptional up regulation of H1.0 gene expression that could be influenced by TOR pathway suppression. 1, 2, 3—represent samples of three independent hADSCs cultures used in western blot and qPCR experiments.
Cellular senescence is believed to be associated with accumulation of persistent DNA damage (Sedelnikova et al. (2008) Aging Cell 7: 89-100; Rodier et al. (2009) Nat. Cell Biol., 11: 973-979) and activation of DNA damage response (DDR) pathways (Wang et al. (2011) Cell Cycle 10: 3016-3030; Sedelnikova et al. (2004) Nat. Cell Biol., 6: 168-170; Herbig et al. (2004) Molecular Cell, 14: 501-513; d'Adda et al. (2003) Nature 426: 194-198). […]
(In qPCR the cycle at which signal appears reflects the starting amount.)

The subject of experiment [1] is meK172meK180 methylated form of H1.0 in hADSC cells. Put plainly: H1.0 meK172meK180 methylation and localisation in hADSCs upon bleomycin genotoxic stress (immunostaining, Western blot). The experiment is classed as cell-based, human. The note with it: for nuclear meK172meK180 H1 methylation (initial DNA damage response): hADSC, bleomycin 50 μg/ml. As to the method:
FIGS. 4A-4C illustrate the dynamics of the meK172meK180 methylation of hi stone H1.0 upon genotoxic stress-induced senescence of human adult stem (hADSC). FIG. 4A: Cells we treated with 50 μg/ml bleomycin for 3 hrs. Drug was replaced with normal DMEM12 media and cells were assessed for ^meK172^meK180 histone H1 methylation and DNA damage γH2AX at different time points (panels A, B, and C) by immunohistochemistry. Cellular senescence was estimated by senescence-associated β-Gal activity (phase-contrast). […] 1, 2, 3—represent samples of three independent hADSCs cultures used in western blot and qPCR experiments.
Cellular senescence is believed to be associated with accumulation of persistent DNA damage and activation of DNA damage response (DDR) pathways. In the DDR pathway, some chromatin modifications seem to play a critical role in marking lesions or recruiting factors involved in repair, thus facilitating the function of repair proteins. The best characterized in this context are histone H2AX and H1 phosphorylation events.
A general note: Immunoblotting shows a protein as a band on a membrane.

For bleomycin, the “H1.0 transcription upon acute DNA damage” value with H1.0 gene is reported as “drastic increase”. Further, the “localisation of met H1.0 upon genotoxic-stress induced senescence” value in experiment [1] (bleomycin-treated hADSCs) is “eviction of met H1.0 into the cytoplasm”. Besides, the “nuclear meK172meK180 H1 methylation (initial DNA damage response)” value in experiment [1] was “triggers”; in experiment [1] (listed as bleomycine), “rapid and robust nuclear H1.0 methylation”.
